Assay results taken from patent US10933044B2, “Marine organism-derived extract, compound, and medical composition having niche formation suppressing activity of leukemic stem cells” (WASEDA UNIVERSITY, priority 2016, dated 2021).
“Also recorded” adds a separate entry of the source.

Columns and labels:
[1] = tested on: MB-1 cells co-cultured with OP9 cells; assay: Screening for cobblestone area (CA) formation inhibitory activity in co-culture of OP9 cells and MB-1 cells; format: cell-based, human; settings: OP9/MB-1 co-culture, 48 hours incubation with sample; tested at 10, 2, 0.4 and 0.08 μg/mL; microscopic observation
Procedure: In individual wells of a 96-well plate, OP9 cells (9.0×10^3) treated with 3 μg/mL mitomycin C (Sigma-Aldrich Co. LLC., USA) for 3 hours (37° C., 5% CO2) were seeded and incubated at 37° C. under 5% CO2. The culture liquid used herein was α MEM (Gibco) containing 20% inactivated FBS (MP Biomedicals, LLC., USA) and 1% penicillin-streptomycin (P/S, Gibco, Thermo Fisher Scientific Inc., USA). The following day, to the individual wells having OP9 cells seeded therein, MB-1 cells (2.5×10^3) were seeded. In the co-culture of the OP9 cells and MB-1 cells, the culture liquid used herein was α MEM containing 10% inactivated FBS (Biowest SAS, France), 1% P/S, 1% non-essential amino acids (NEAA, Invitrogen, Thermo Fisher Scientific Inc.) and 10 μM β-mercaptoethanol (Gibco). Forty-eight hours later, a Porifera sample (2 μL) dissolved in DMSO was added and diluted five times to prepare four solutions different in concentration (10 μg/mL, 2 μg/mL, 0.4 μg/mL and 0.08 μg/mL). After incubation was performed for 48 hours at 37° C. under 5% CO2, fixation was performed with 4% paraformaldehyde (Wako Pure Chemical Industries, Ltd.), nuclear-staining was performed with Hoechst 33342 (Dojindo Laboratories, Kumamoto) and observation was made with a microscope (Type IX71, Olympus Corporation Ltd., Tokyo). […]

[2] = tested on: MB-1 cells co-cultured with OP9 cells; assay: Stereoscopic positional relationship between mCherry OP9 cells and GFP MB-1 cells by confocal microscope; format: cell-based, human; settings: Stelliferin A 0.4 μg/mL, two days
Procedure: The effect of a Stelliferin compound on the stereoscopic positional relationship between OP9 cells (which serve as support cells in CA formation in the mouse mesenchymal cells) and MB-1 cells was examined by using OP9 cells and MB-1 cells to which fluorescent proteins were separately introduced.
To a 35-mm dish having a glass bottom, OP9 cells, which were treated with MMC and to which fluorescent protein mCherry was introduced, were seeded at a density of 4.0×10^5 cells. After culture was performed for one day, fluorescent protein GFP introduced MB-1 cells were seeded at a density of 2.0×10^5 cells. After culture was performed for two days, Stelliferin A was added in a concentration of 0.4 μg/mL. After culture was performed for two days, the stereoscopic positional relationship between the cells was photographed with a confocal microscope (Type IX81, Olympus Corporation), and examined.

[3] = tested on: MB-1 cells co-cultured with OP9 cells; assay: Apoptosis detection with JC-1 mitochondrial membrane potential reagent in co-culture of MB-1 cells and OP9 cells; format: cell-based, human
Procedure: The effect of the Stelliferin compound on CA formed by co-culture of OP9 cells (serving as support cells for the CA formation in the mouse mesenchymal cells) and MB-1 cells was examined by apoptosis detection reagent JC-1.
(§1) To a 24-well plate, OP9 cells treated with MMC were seeded at a density of 8.0×10^4 cells per well. After culture was performed for one day, MB-1 cells were seeded at a density of 4.0×10^4 cells per well. After culture was performed for two days, Stelliferin A was added in a concentration of 0.4 μg/mL. After culture was performed for one day, imatinib was added in a concentration of 1.0 μM. After culture was performed for one day, apoptosis was detected in the manner described below.
Apoptosis was detected by JC-1 Mitochondrial Membrane Potential Assay Kit. To each well, 50 μL of JC-1 Reagent of JC-1 Mitochondrial Membrane Potential Assay Kit was added and incubation was carried out for 20 minutes. Thereafter, 0.05% trypsin-EDTA was added to each well and incubation was carried out for 4 minutes. After a culture liquid was added, aliquots were separately taken and then centrifuged (1,200 rpm, 4 minutes) to collect cells. The collected cells were separately suspended in 300 μL of a culture liquid and analyzed by a cell sorter (Type SH-800, SONY Corporation, Tokyo). The ratios of red fluorescent negative cells in individual wells were calculated.

[4] = tested on: MB-1 cells co-cultured with OP9 cells; assay: Apoptosis detection with NucView 488 Caspase-3 Assay Kit in co-culture of MB-1 cells and OP9 cells; format: cell-based, human; settings: for Apoptosis induction of MB-1 cells (%): NucView 488 positive cells
Procedure: as §1, with “To a 12-well plate, OP9” for “To a 24-well plate, OP9”, “density of 1.6×10^5 cells per” for “density of 8.0×10^4 cells per”, “density of 8.0×10^4 cells per” for “density of 4.0×10^4 cells per”, “concentration of 0.2 μM or 1.0 μM.” for “concentration of 1.0 μM.”
Apoptosis was detected by use of NucView 488 Caspase-3 Assay Kit for Live Cells (Biotium, USA) or a fluorescent reagent JC-1 (Cayman Chemical, USA) which detects mitochondrial membrane potential difference.
In evaluation by NucView 488, 0.05% trypsin-EDTA was added to individual wells. After incubation for 4 minutes, the culture liquid was added. Aliquots were separately taken and then centrifuged (1,200 rpm, 4 minutes) to collect cells. Each of the suspensions of the cells collected was controlled so as to obtain a density of 1.0×10^6 cells per mL. Aliquots (200 μL) were separately taken from the suspensions. To the cells thus taken, 5 μL of NucView 488 substrate stock solution of NucView 488 Caspase-3 Assay Kit for Live Cells was added and incubated in the darkness at normal temperature for 20 minutes. Culture liquid (300 μL) was added and subjected to analysis by a cell sorter (Type SH-800, SONY Corporation, Tokyo). The ratio of green fluorescent positive cells per each well was calculated.

OP9 cells = assay: CA formation when OP9 cells exposed to Stelliferin A are co-cultured with unexposed MB-1 cells; format: cell-based, mouse; settings: OP9 cells exposed to 0.4 μg/mL Day 2 to Day 4, then unexposed MB-1 cells; compared to unexposed control
Procedure: On Day 1, OP9 cells were seeded in a culture medium in the same manner as above and incubated. On Day 2, Stelliferin A was added so as to be 0.4 μg/ml, and incubated. On Day 4, fresh MB-1 cells not exposed to Stelliferin A were seeded and co-cultured. On Day 6, whether CA was formed or not was examined. Also, for comparison, CA formation was examined in a control system where OP9 cells and MB-1 cells were co-cultured in the absence of Stelliferin A in accordance with the above schedule.

[5] = tested on: MB-1 cells co-cultured with OP9 cells; assay: CA reformation after Stelliferin A treatment of OP9/MB-1 co-culture and exchange of culture medium; format: cell-based, human; settings: Stelliferin A 0.4 μg/mL Day 4 to Day 6, fresh medium without it, examined Day 8
Procedure: (§2) On Day 1, OP9 cells were seeded in a culture medium in the same manner as above and incubated. On Day 2, MB-1 cells were seeded and co-cultured with the OP9 cells. On day 4, Stelliferin A was added so as to be 0.4 μg/mL and incubated.

MB-1 cells [6] = assay: CA reformation when free MB-1 cells from treated co-culture are co-cultured with fresh OP9 cells; format: cell-based, human; settings: Stelliferin A 0.4 μg/mL Day 4 to Day 6, then co-culture in the absence of Stelliferin A, examined Day 8
Procedure: as §2

[7] = tested on: TF-1 cells co-cultured with OP9 cells; assay: Niche (CA) formation suppression in co-culture of TF-1 cells and OP9 cells; format: cell-based, human; settings: TF-1/OP9 co-culture; Stelliferin A at 0.4 μg/mL, two days
Procedure: In order to verify that the action of Stelliferin A to suppress niche formation by MB-1 cells is not specific to MB-1 cells, the actions of a fat-soluble fraction of S12111 and Stelliferin A against niche formation by TF-1 cells were evaluated in a co-culture system of TF-1 cells (which have leukemic stem-cell-like characteristics similarly to MB-1 cells) and OP9 cells.
The experiment was carried out basically in the same manner as employed in the evaluation with MB-1 cells mentioned above except that TF-1 cells (strain derived from human bone marrow erythroleukemia cells) were used in place of MB-1 cells. In evaluation of Stelliferin A, more specifically, evaluation of niche formation suppressive action of Stelliferin A in the co-culture system of TF-1 cells and OP9 cells, OP9 cells (8.0×10^4) treated with MMC were seeded in individual wells of a 24-well plate. After culture was performed for one day, TF-1 cells (4.0×10^4) were seeded. The culture liquid used herein was IMDM (Gibco) containing 10% inactivated FBS (Biowest SAS, France) and 1% P/S. After culture was performed for one day, medium was exchanged. After culture was performed for further one day, Stelliferin A was added in a concentration of 0.4 μg/mL. After culture was performed for two days, the presence or absence of CA formation was observed by a microscope.

MB-1 cells [8] = assay: Apoptosis inducing action by imatinib alone in culture system of MB-1 cells alone (NucView 488); format: cell-based, human; settings: imatinib 0.2 μM or 1.0 μM, one day; compared to MB-1 cells co-cultured in the absence of Stelliferin A
Procedure: Apoptosis inducing action by imatinib alone in a culture system of MB-1 cells alone was evaluated.
From a co-culture system with OP9 cells, MB-1 cells were purified by a cell sorter and seeded to 12-well plates at a density of 2.0×10^5 cells per well, and then, imatinib was added in a concentration of 0.2 μM or 1.0 μM. After culture was performed for one day, apoptosis was detected in the manner described below.
Apoptosis was detected by use of NucView 488 Caspase-3 Assay Kit for Live Cells (Biotium, USA) in the same manner as in the apoptosis detection performed in the co-culture system of MB-1 cells and OP9 cells.

Compound	CA formation inhibitory activity [1] [µg/mL]	Position of MB-1 cells relative to OP9 cell layer [2]	Apoptosis induction (JC-1, mitochondrial membrane potential difference disappeared) ([3]; co-presence of Stelliferin A 0.4 μg/mL and imatinib 1.0 μM)	Apoptosis induction (JC-1) when dose of imatinib was changed ([3]; in the presence of Stelliferin A, imatinib dose varied)	Apoptosis induction of MB-1 cells (%) ([4]; Stelliferin A present at 0.4 μg/mL plus imatinib 0.2 μM)	Apoptosis induction of MB-1 cells (%) ([4]; Stelliferin A present at 0.4 μg/mL plus imatinib 1.0 μM)	Apoptosis induction of MB-1 cells (%) ([4]; Stelliferin A present at 0.4 μg/mL, imatinib absent)	Ratio of MB-1 cells which induced apoptosis / NucView peak representing caspase 3 activity ([4]; presence of Stelliferin A with imatinib 0.2 μM and 1.0 μM compared to absence of Stelliferin A)	Number of CAs formed with OP9 cells exposed to Stelliferin A (OP9 cells)	CA reformation after removal of Stelliferin A [5]	CA reformation of treated free MB-1 cells with fresh OP9 cells (MB-1 cells [6])	Niche formation by TF-1 cells [7]	Sensitivity of MB-1 cells cultured alone to imatinib (apoptosis) (MB-1 cells [8])	Apoptosis induction of MB-1 cells (%) ([4]; imatinib 0.2 μM, Stelliferin A absent)	Apoptosis induction of MB-1 cells (%) ([4]; imatinib 1.0 μM, Stelliferin A absent)
Stelliferin B	0.08	–	–	–	–	–	–	–	–	–	–	–	–	–	–
Stelliferin A	0.08	MB-1 cells were exposed to the upper side of the OP9 cell layer	apoptosis was induced	apoptosis was also induced in the dose-dependent manner of imatinib	22.39	44.63	16.03	increased depending on each of the concentrations of Stelliferin A and imatinib; also recorded: statistically significantly (Student t test, p<0.05) increased	the number of CAs formed was low	CA was not reformed	CA was reformed	suppressed niche formation by TF-1 cells	–	–	–
Cc1ccc(NC(=O)c2ccc(CN3CCN(C)CC3)cc2)cc1Nc1nccc(-c2cccnc2)n1 [Imatinib, imatinib, reference compound]	–	–	–	–	–	–	–	–	–	–	–	–	high sensitivity	8.07	12.14
